Source: patent US10278957B2, “Opioid agonist peptides and uses thereof” (Protagonist Therapeutics, Inc., priority 2017, dated 2019)
Square brackets hold non-standard residues; d marks the D form. Peptide text beside a SMILES is read from it. Dmt = Cc1cc(O)cc(C)c1C[C@H](N)C(=O)O; β3hF = N[C@H](CC(=O)O)Cc1ccccc1; Sar = CNCC(=O)O

Columns and labels:
[1] = molecular target: T1, μ-opioid receptor (MOR) (Homo sapiens, UniProt P35372); test: MOR agonist cAMP assay (HitHunter cAMP, forskolin-stimulated); type: cell-based
T1 construct: host or cells: cAMP Hunter CHO-K1 OPRM1 Gαi cell line
Outline: (§1)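 CHO-K1 Gαi cells expressing OPRM1 or OPRD1 were exposed 30 min at 37° C to 11-point threefold agonist dilutions, in duplicate, with 20 uM forskolin final. cAMP quantified by EFC chemiluminescent competitive immunoassay against cAMP standards. EC50 by four-parameter Hill nonlinear regression.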

[2] = molecular target: T2, δ-opioid receptor (DOR) (Homo sapiens, UniProt P41143); test: DOR agonist cAMP assay (HitHunter cAMP, forskolin-stimulated); type: cell-based
T2 construct: host or cells: cAMP Hunter CHO-K1 OPRD1 Gαi cell line
Outline: as §1

[3] = SGF assay (stability in simulated gastric fluid); type: in vitro ADME; conditions: pig, simulated gastric fluid (SGF) with porcine pepsin, pH 2, pepsin, 37° C.
Protocol: SGF was prepared by adding 20 mg NaCl, 32 mg porcine pepsin (MP Biochemicals, catalog 02102599), and 70 μl HCl to 10 ml water (final pH=2). Aliquots of SGF (0.5 ml each) were pre-warmed at 37° C. To start the reaction, 1 μl of opioid agonist peptide stock solution (10 mM in DMSO) was added to 0.5 ml SGF and thoroughly mixed such that the final peptide concentration was 20 μM. The reactions were incubated at 37° C. with gentle shaking.
At each timepoint (0, 15, 30, 60 min) 50 µl aliquots were removed and added to 200 ul of acetonitrile containing 0.1% formic acid to quench the reaction. Samples were stored at 4° C. until the end of the experiment and centrifuged at 10,000 rpm for 5 minutes. Aliquots of the supernatant were removed, diluted 1:1 into distilled water containing internal standard, and analyzed by LCMS/MS. The percent of the opioid agonist peptide remaining at each timepoint was calculated based on the peak area response ratio of the opioid agonist peptide to the internal standard. Time 0 was set to 100%, and all later timepoints were calculated relative to time 0. Half-lives were calculated by fitting to a first-order exponential decay equation using GraphPad.

[4] = SIF assay (stability in simulated intestinal fluid); type: in vitro ADME; conditions: simulated intestinal fluid (SIF) with pancreatin; simulated intestinal fluid, pH 6.8, pancreatin, 37° C., 20 μM
Protocol: SIF was prepared by adding 6.8 g of monobasic potassium phosphate and 10.0 g of pancreatin to 1.0 L of water. After dissolution, the pH was adjusted to 6.8 using NaOH. DMSO stocks (2 mM) were prepared for each of the opioid agonist peptides. Aliquots of the DMSO solutions were dosed into […], each containing 0.5 mL of SIF, which was pre-warmed to 37° C. The final opioid agonist peptide concentration was 20 μM. The vials were kept in a benchtop Thermomixer® for the duration of the experiment. At each timepoint (0, 5, 10, 20, 40, 60, or 360 minutes or 24 hours), 1.0 mL of acetonitrile containing 1% formic acid was added to one vial to terminate the reaction. Samples were stored at 4° C. until the end of the experiment. After the final timepoint was sampled, the tubes were mixed and then centrifuged at 3,000 rpm for 10 minutes. Aliquots of the supernatant were removed, diluted 1:1 into distilled water containing an internal standard, and analyzed by LCMS/MS. The percent of the opioid agonist peptide remaining at each timepoint was calculated based on the peak area response ratio of opioid agonist peptide to the internal standard. Time 0 was set to 100%, and all later timepoints were calculated relative to time 0. Half-lives were calculated by fitting to a first-order exponential decay equation using Graph pad.

[5] = system: visceral pain (writhing); test: Acetic Acid or Acetylcholine Writhing Assay; type: in vivo; conditions: PO; FIGS. 3A and 3B
Protocol: Animals were fasted overnight prior to the start of the assay. Test and control article doses, ranging from 3-50 mg/kg, were administered (PO) followed by an IP injection of acetic acid (1.0%) or acetylcholine (10 mg/kg), and immediately placed in a viewing chamber. […] Writhing (abdominal constriction) was defined as a contraction of the abdominal musculature accompanied by arching of the back and extension of the limbs. Latency to first writhe and total number of writhes were recorded. Test articles included oral eluxadoline and two illustrative opioid peptides disclosed herein, Peptide A and Peptide D; and control articles included loperamide and morphine

T2 sequence (P41143 whole entry): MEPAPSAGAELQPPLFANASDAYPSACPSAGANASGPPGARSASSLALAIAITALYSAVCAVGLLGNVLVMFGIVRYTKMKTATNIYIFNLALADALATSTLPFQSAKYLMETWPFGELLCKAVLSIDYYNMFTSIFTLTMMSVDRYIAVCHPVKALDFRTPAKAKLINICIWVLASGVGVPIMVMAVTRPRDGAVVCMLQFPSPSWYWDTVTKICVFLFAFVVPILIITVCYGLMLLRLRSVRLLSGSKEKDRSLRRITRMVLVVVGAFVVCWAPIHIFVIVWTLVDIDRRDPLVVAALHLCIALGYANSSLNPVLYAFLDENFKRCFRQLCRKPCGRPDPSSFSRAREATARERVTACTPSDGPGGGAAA
T1 sequence (P35372 whole entry): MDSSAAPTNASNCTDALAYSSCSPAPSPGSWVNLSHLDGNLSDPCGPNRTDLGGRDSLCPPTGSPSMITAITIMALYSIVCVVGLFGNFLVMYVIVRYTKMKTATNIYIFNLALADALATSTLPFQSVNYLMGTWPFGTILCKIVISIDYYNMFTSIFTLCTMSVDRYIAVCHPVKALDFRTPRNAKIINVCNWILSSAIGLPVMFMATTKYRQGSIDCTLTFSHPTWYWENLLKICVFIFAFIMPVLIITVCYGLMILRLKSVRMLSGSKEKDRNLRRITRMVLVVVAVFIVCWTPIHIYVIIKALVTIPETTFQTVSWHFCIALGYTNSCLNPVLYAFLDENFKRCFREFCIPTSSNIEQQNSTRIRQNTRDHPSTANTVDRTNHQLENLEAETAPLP

Which results are given for `CCCC[C@@H](C(=O)O)N(C)C(=O)C[C@H](Cc1ccccc1C)NC(=O)CNC(=O)[C@@H](C)NC(=O)[C@@H](N)Cc1c(C)cc(O)cc1C` [compound 140]?
EC50 [1]: < 1 nM; EC50 [2]: < 1 nM; half-life at 20 μM [3]: 360 to 1440 min; half-life at 20 μM [4]: 360 to 1440 min

Which EC50 [1] does the source give for `Cc1cc(C(N)=O)cc(C)c1C[C@H](N)C(=O)N[C@H](C)C(=O)NCC(=O)N[C@H](CC(=O)N(C)[C@@H](CC(C)C)C(=O)O)Cc1ccccc1` [compound 92] here?
Its EC50 is 1 to 10 nM.

What about the EC50 [2] of the same compound?
Its EC50 is less than 1 nM.

What about the half-life at 20 μM [3] of the same compound?
Its half-life at 20 μM is greater than 1440 min.

What about the half-life at 20 μM [4] of the same compound?
Its half-life at 20 μM is greater than 1440 min.

For `CCCC[C@@H](C(=O)O)N(C)C(=O)C[C@H](Cc1cccc(Cl)c1)NC(=O)CNC(=O)[C@@H](C)NC(=O)[C@@H](N)Cc1c(C)cc(C(N)=O)cc1C` [compound 167], which EC50 [1] is on record?
Its EC50 is less than 1 nM.

And the EC50 [2]?
The EC50 was less than 1 nM.

And the half-life at 20 μM [3]?
Its half-life at 20 μM is greater than 1440 min.

What about the half-life at 20 μM [4] of the same compound?
The half-life at 20 μM was greater than 1440 min.

With `CCCC[C@@H](C(=O)O)N(C)C(=O)C[C@H](Cc1ccc(C)cc1)NC(=O)CNC(=O)[C@@H](C)NC(=O)[C@@H](N)Cc1c(C)cc(C(N)=O)cc1C` [compound 165] as the compound, how does the EC50 [1] read?
Its EC50 is less than 1 nM.

What about the EC50 [2] of the same compound?
The EC50 was less than 1 nM.

And the half-life at 20 μM [3]?
Its half-life at 20 μM is greater than 1440 min.

And the half-life at 20 μM [4]?
The half-life at 20 μM was 10 to 360 min.

Which results are given for `Cc1cc(C(N)=O)cc(C)c1C[C@H](N)C(=O)N[C@H](C)C(=O)NCC(=O)N[C@H](CC(=O)N(C)[C@@H](C)C(=O)O)Cc1ccccc1` [compound 93]?
EC50 [1]: < 1 nM; EC50 [2]: < 1 nM; half-life at 20 μM [3]: > 1440 min; half-life at 20 μM [4]: > 1440 min

What does the source list for `Cc1cc(O)cc(C)c1C[C@H](N)C(=O)N[C@H](Cc1ccc(O)cc1)C(=O)NCC(=O)N[C@H](CC(=O)N(C)CC(N)=O)Cc1ccccc1` [compound 84]?
EC50 [1]: < 1 nM; EC50 [2]: < 1 nM; half-life at 20 μM [3]: > 1440 min; half-life at 20 μM [4]: > 1440 min

With `Cc1cc(O)cc(C)c1C[C@H](N)C(=O)NCC(=O)NCC(=O)N[C@H](CC(=O)N(C)CC(N)=O)Cc1ccccc1` [compound 81] (H-[Dmt]GG[β3hF][Sar]-NH2) as the compound, how does the EC50 [1] read?
Its EC50 is less than 1 nM.

And the EC50 [2]?
The EC50 was less than 1 nM.

And the half-life at 20 μM [3]?
Its half-life at 20 μM is greater than 1440 min.

And the half-life at 20 μM [4]?
The half-life at 20 μM was greater than 1440 min.

Which results are given for `Cc1cc(C(N)=O)cc(C)c1C[C@H](N)C(=O)N[C@@H](C(=O)NCC(=O)N[C@H](CC(=O)N(C)CC(N)=O)Cc1ccccc1)[C@H](C)O` [compound 76]?
EC50 [1]: 1 to 10 nM; EC50 [2]: < 1 nM; half-life at 20 μM [3]: 10 to 360 min; half-life at 20 μM [4]: > 1440 min

What does the source list for `Cc1cc(C(N)=O)cc(C)c1C[C@H](N)C(=O)N[C@H](C)C(=O)NCC(=O)N[C@H](CC(=O)N(C)CC(N)=O)Cc1ccccc1` [compound 70]?
EC50 [1]: < 1 nM; EC50 [2]: < 1 nM; half-life at 20 μM [3]: 10 to 360 min; half-life at 20 μM [4]: > 1440 min

Which “effect on pain (writhing study)” value [5] does the source give for `COc1ccc(CN(C(=O)[C@@H](N)Cc2c(C)cc(C(N)=O)cc2C)[C@@H](C)c2ncc(-c3ccccc3)[nH]2)cc1C(=O)O` [eluxadoline, reference compound] here?
The value was “little effect on pain”.

What does the source list for `Cc1cc(C(N)=O)cc(C)c1C[C@H](N)C(=O)N[C@H](C)C(=O)NCC(=O)N[C@H](CC(=O)N(C)CC(=O)O)Cc1ccccc1` [compound 79]?
EC50 [1]: < 1 nM; EC50 [2]: < 1 nM; half-life at 20 μM [3]: > 1440 min; half-life at 20 μM [4]: > 1440 min
